According to patent US9388215B2, “Compositions and methods of using islet neogenesis peptides and analogs thereof” (SHENZHEN HIGHTIDE BIOPHARMACEUTICAL, LTD., priority 2013, dated 2016):

Legend:
[1] = Peptide stability in mouse plasma; format: in vitro ADME; details: 100 μg/mL, 37° C.; FIG. 3, 5, 14
Description: (§1) The stability of peptides was also tested in mouse and human plasma. Briefly, a certain amount of peptides and eucatropine powder (positive control) was accurately weighed. Test compounds were dissolved in 50% methanol-water solution and diluted to 20 mg/mL, and eucatropine was dissolved in dimethylsulfoxide (DMSO) and diluted to 10 mM, as a stock solution. Eucatropine stock solution was diluted to 0.2 mM with DMSO as a working solution. A stop reagent was prepared containing 200 ng/mL midazolam and tolbutamide in acetonitrile. A volume of 300 μL of stop solution was added to each well of a 96-well deep-well plate placed on ice beforehand.
(§2) For the stability studies, peptides and eucatropine were spiked into plasma respectively, mixed well, and then 100 μL of each mixture solution was transferred into the pre-cooled stop reagent as 0 time point sample. The remaining mixtures were incubated in a 37° C. water bath with shaking at 100 rpm (n=2). The final incubation concentration was 1 for eucatropine and 100 μg/mL for all test compounds.
(§3) At desired time points, 100 μL of incubation mixture was transferred to the stop reagent to precipitate proteins. Samples were vortexed and centrifuged at RCF 5000×g for 10 minutes, and supernatant was transferred to a test plate. The samples were analyzed by LC-MS/MS.
(§4) Slope was calculated by plotting the natural logarithm of the percentage of remaining amount of test compounds and time, and T1/2 was calculated in accordance with the following formula.
For stability in mouse plasma, the incubation time was 0, 5, 15, 30 and 60 min for Peptide 1 and eucatropine; 0, 15, 30, 60, 120, 240 and 480 min for Peptide 12, Peptide 16 and Peptide 29.
In another stability study in mouse plasma, the incubation time was 0, 30, 60 and 120 min for Peptide 2 and eucatropine; 0, 30, 60, 120, 240 and 960 min for Peptide 52 and Peptide 54.
as §1, with “tested in rat, mouse and” for “tested in mouse and”
as §2, with “was 1 μM for eucatropine” for “was 1 for eucatropine”
For stability in mouse plasma, the incubation time was 0, 15, 30, 60 and 120 min for Peptide 1 and eucatropine; 0, 15, 30, 60, 120, and 240 min for Peptide 31.

[2] = Peptide stability in human plasma; format: in vitro ADME; details: 100 μg/mL, 37° C.; FIG. 4, 15
Description: as §1, §2, §3, §4
For stability in human plasma, the incubation time was 0, 30, 60 and 120 min for Peptide 1, Peptide 12, Peptide 16 and eucatropine.
The stability of peptides was also tested in rat, mouse and human plasma. Briefly, a certain amount of peptides and eucatropine powder (positive control) was accurately weighed. Test compounds were dissolved in 50% methanol-water solution and diluted to 20 mg/mL, and eucatropine was dissolved in dimethylsulfoxide (DMSO) and diluted to 10 mM, as a stock solution. Eucatropine stock solution was diluted to 0.2 mM with DMSO as a working solution. […]

[3] = Pharmacokinetics in SD rats after single subcutaneous dose (Example X); format: in vivo, rat; details: plasma, sc, male Sprague-Dawley rat, subcutaneous, 25 mg/kg; for AUC(0-t): read-out: AUC(0-t); for AUC(0-inf): read-out: AUC(0-∞); for Cmax: read-out: Cmax
Description: After 7 days acclimation, a total of 15 male Sprague-Dawley (SD) rats (body weight: 230 to 270 g) in good health from Sino-British SIPPR/BK Lab Animal Ltd, Shanghai, were used in the study. All peptides, Peptide 1, Peptide 12, Peptide 16, Peptide 29 or Peptide 31, were dissolved in sterile normal saline respectively to yield the desired final concentrations and were administered via single subcutaneous (sc) dose.
Three animals in each group were used for blood collection at the time point of 5 min, 15 min, 30 min, 1 h, 2 h, 4 h, 6 h, 8 h and 24 h post-dose. Blood samples (approximately 400 μL) were collected and placed into tubes containing EDTA-K2 (dipotassium ethylene diamine tetraacetic acid) and centrifuged at 8000 rpm for 6 minutes at 4° C. to separate plasma from the samples. The resulting plasma was stored frozen at −80° C. until being analyzed.
Plasma concentrations of peptides were determined using tandem mass spectrometry (LC-MS/MS) analysis. A non-compartmental module of WinNonlin® Professional 5.2 (Pharsight; St. Louis Mo.) was used to calculate PK parameters. AUC(0-t) represents area under the curve from the time of dosing to the time of the last observation, the AUC(0-∞) represents area under the curve from the time of dosing to infinity, and the Cmax represents maximum concentration detected.

[4] = Pharmacokinetics in mouse, subcutaneous bolus; format: in vivo; details: male, C57BL/6, plasma, MOUSE (SC), 25 mg/kg; for AUC(0-t): read-out: AUC(0-t); for AUC(0-inf): read-out: AUC(0-∞); for Cmax: read-out: Cmax
Description: (§5) After 7 days acclimation, male Sprague-Dawley (SD) rats weighing 210-250 g, or male C57BL/6 mice, weighing 19-24 g, in good health were used in the study. Peptide 1, Peptide 12 and Peptide 16 were dissolved in sterile normal saline and then they were injected via subcutaneous (sc) bolus or intravenous (iv) bolus at the dose level of 25 mg/kg. Three animals in each group were used for blood collection at the time point of 5 min, 15 min, 30 min, 1 h, 2 h, 4 h, 6 h, 8 h and 24 h post-dose. Blood samples (approximately 400 μL) were collected and placed into tubes containing EDTA-K2 and centrifuged at 8000 rpm for 6 minutes at 4° C. to separate plasma from the samples. The resulting plasma was stored frozen at −80° C. until being analyzed. Plasma concentrations of peptides were determined using tandem mass spectrometry (LC-MS/MS) analysis. A non-compartmental module of WinNonlin® Professional 5.2 (Pharsight; St. Louis Mo.), was used to calculate PK parameters. The abbreviation AUC(0-t) represents area under the curve from the time of dosing to the time of the last observation, the AUC(0-∞) represents area under the curve from the time of dosing to infinity, and the Cmax represents maximum concentration detected.

[5] = Pharmacokinetics in rat, subcutaneous bolus (Example VII); format: in vivo; details: male, Sprague-Dawley, plasma, RAT (SC), 25 mg/kg; for AUC(0-t): read-out: AUC(0-t); for AUC(0-inf): read-out: AUC(0-∞); for Cmax: read-out: Cmax
Description: as §5

Substance | stability in mouse plasma [1] | stability in human plasma [2] | AUC(0-t) [3] | AUC(0-inf) [3] | Cmax [3] | AUC(0-t) [4] | AUC(0-inf) [4] | Cmax [4] | AUC(0-t) [5] | AUC(0-inf) [5] | Cmax [5]
Ac-IGLHDPSHGTLPNGS-NH2 [Peptide 31, Ac-IGLHDPSHGTLPNGS-NH2] | exhibited good stability in mouse plasma and was more stable than INGAP-PP | exhibited good stability in human plasma and were significantly more stable than INGAP-PP | 15600 ± 1530 ng·h/mL | 15600 ± 1530 ng·h/mL | 26000 ± 3100 ng/mL | – | – | – | – | – | –
Ac-IGLHDPSHGTLPNGS-OH [Peptide 16, Ac-IGLHDPSHGTLPNGS-OH] | exhibited good stability in mouse plasma and were more stable than INGAP-PP | exhibited good stability in human plasma and were significantly more stable than INGAP-PP | 11200 ± 1880 ng·h/mL | 11200 ± 1880 ng·h/mL | 22100 ± 5870 ng/mL | 11400 ng·h/mL | 11400 ng·h/mL | 14400 ng/mL | 12100 ng·h/mL | 12200 ng·h/mL | 18900 ng/mL
H-IGLHDPSHGTLPNGS-OH [Peptide 1, H-IGLHDPSHGTLPNGS-OH, reference compound] | – | – | 294 ± 125 ng·h/mL | 298 ± 122 ng·h/mL | 1190 ± 610 ng/mL | 54.5 ng·h/mL | 58.3 ng·h/mL | 141 ng/mL | 298 ng·h/mL | 305 ng·h/mL | 1240 ng/mL
